The record followed here is patent US7799819B2, “7-Amido-isoindolyl compounds and their pharmaceutical uses” (Celgene Corporation, priority 2003, dated 2010).

A word on the melting point: it is the temperature of the solid-liquid transition. With `CCOc1cc([C@@H](CS(C)(=O)=O)N2Cc3c(Cl)ccc(NC(=O)CN4CCOCC4)c3C2=O)ccc1OC.Cl`, the melting point lay in the range of 198 to 200 °C.
The same measure for `CCOc1cc([C@@H](CS(C)(=O)=O)N2Cc3c(Cl)ccc(NC(=O)CN(C)C)c3C2=O)ccc1OC.Cl`: 198 to 200 °C; for `CCOc1cc([C@@H](CCS(C)(=O)=O)N2Cc3cccc(NC(=O)C4CC4)c3C2=O)ccc1OC` [Example 8, (1R)-Cyclopropanecarboxylic acid {2-[1-(3-ethoxy-4-methoxy-phenyl)-3-methanesulfonyl-propyl]-3-oxo-2,3-dihydro-1H-isoindol-4-yl}-amide]: 148 to 150 °C.
